Values joined by “and” are separate entries in the source; they are usually repeats but may differ in a detail not shown here. Identical values can stand only once.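 Where inhibition never reached the appropriate level, the endpoint shown equals the highest concentration tested. Otherwise, values were interpolated linearly from a five-concentration, 48-hour dose response in 96-well plates. GI50 is the concentration that inhibits growth by half. Definition used: TGI = concentration required for complete inhibition of growth.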
Experiments:
Experiment in all cases: NCI-60 cell line screen, 48 h
[1] = tested on: A549 NSCLC
[2] = tested on: HT29 colon
[3] = tested on: LOX IMVI melanoma
[4] = tested on: MOLT-4 leukemia
[5] = tested on: NCI-H460 lung
[6] = tested on: OVCAR-4 ovarian
[7] = tested on: PC-3 prostate
[8] = tested on: SK-MEL-5 melanoma
[9] = tested on: SK-OV-3 ovarian
[10] = tested on: SN12C renal
[11] = tested on: SNB-75 CNS
[12] = tested on: SR leukemia

SMILES	TGI [1]	TGI [2]	TGI [3]	TGI [4]	TGI [5] [µM]	TGI [6]	TGI [7]	TGI [8]	TGI [9]	TGI [10]	TGI [11]	TGI [12]	GI50 [5]	GI50 [11]
CC(C)(C)Nc1noc(=O)n1C(C)(C)C	> 100 µM	> 100 µM	> 100 µM	> 100 µM	> 100	> 100 µM	> 100 µM	> 100 µM	> 100 µM	> 100 µM	> 100 µM	> 100 µM	–	–
CCOC(=O)CSc1nnc2cc(CN3CCCC3)c(-c3ccc(Cl)cc3)nn12	> 100 µM	> 100 µM	> 100 µM	> 100 µM	> 100	> 100 µM	> 100 µM	> 100 µM	> 100 µM	> 100 µM	> 100 µM	> 100 µM	–	–
CCOC(=O)C(C)NC(=O)C(C)NC(=O)C(C)NC(=O)C(C)NC(=O)C(C)NC(=O)OCc1ccccc1 (stereo unspecified)	> 100 µM	> 100 µM	> 100 µM	> 100 µM	> 100	> 100 µM	> 100 µM	> 100 µM	> 100 µM	> 100 µM	> 100 µM	> 100 µM	–	–
COc1cc2cccc(N)c2cc1OC	> 100 µM	> 100 µM	> 100 µM	> 100 µM	> 100	> 100 µM	> 100 µM	> 100 µM	> 100 µM	> 100 µM	> 100 µM	> 100 µM	–	–
COC(=O)C1OC(O[C@H]2CC[C@]3(C)[C@H]4CC=C5[C@@H]6CC(C)(C)CC[C@]6(C(=O)OC6OCC(O)C(O)C6OC6OC(C)C(OC7OCC(O)C(OC8OCC(O)C(O)C8O)C7O)C(OC7OCC(O)C(O)C7O)C6O)CC[C@@]5(C)[C@]4(C)CC[C@H]3C2(C)C)C(O)C(OC2OCC(O)C(O)C2O)C1O (stereo partly specified)	11.3 µM and 11.7 µM	10.1 µM and 10.9 µM	26.5 µM and 21.6 µM	27.6 µM and 28.4 µM	> 100	> 100 µM and 20.2 µM	18.9 µM and 16.4 µM	7 µM and 12.1 µM	> 100 µM and 27.8 µM	5.4 µM and 5.69 µM	25.3 µM and 26.3 µM	4.76 µM and 7.55 µM	> 100 µM and 33.1 µM	5.19 µM and 11.7 µM
NCCN1C(=O)CN=C(c2ccc(Cl)cc2)c2cc(Cl)ccc21	32.2 µM	36 µM	32.4 µM	73.8 µM	34.4	32.1 µM	30.1 µM	31.4 µM	47.6 µM	62.9 µM	30.7 µM	40.7 µM	–	–
CN(C)P(=O)(Oc1ccc(CC(NC(=O)OCc2ccccc2)C(=O)OCc2ccccc2)cc1)N(C)C (stereo unspecified)	38.2 µM	24.6 µM	34.5 µM	13.7 µM	48.8	39.1 µM	29.9 µM	38.1 µM	33.2 µM	31.8 µM	33.3 µM	24.6 µM	–	–
O=C(c1ccccc1)c1ccc(-n2c3ccccc3c3ccc4c(c32)C(=O)C=CC4=O)cc1	36.4 µM	8.35 µM	16.3 µM	> 35.4 µM	36.2	31.8 µM	25.8 µM	43 µM	42.9 µM	28.3 µM	> 58.4 µM	> 34 µM	–	–
Cc1cc(S(=O)(=O)Nc2cc(N)[nH]n2)c(SCc2nc(N)nc(N(C)C)n2)cc1Cl	> 10 µM	> 10 µM	> 10 µM	> 10 µM	> 10	> 10 µM	> 10 µM	> 10 µM	> 10 µM	> 10 µM	> 10 µM	> 10 µM	–	–
c1ccc(CNCCCCNCCCNCc2ccccc2)cc1	36.2 µM	31 µM	32.7 µM	33.2 µM	30.2	38.2 µM	28.8 µM	32.5 µM	> 100 µM	36.4 µM	49.4 µM	56.1 µM	–	–
CCOC(=O)c1cnc2n(c1=N)[C@H]1CCCC[C@@H]1N2	> 100 µM	> 100 µM	> 100 µM	> 100 µM	> 100	> 100 µM	> 100 µM	> 100 µM	> 100 µM	> 100 µM	> 100 µM	> 100 µM	–	–
CCOc1ccc(N/C(Cl)=C(Cl)\C(=C(\Nc2ccc(OCC)cc2)n2nnc3ccccc32)[N+](=O)[O-])cc1	66.8 µM	3.46 µM	3.96 µM	> 100 µM	> 59.7	30.8 µM	21.6 µM	24.5 µM	> 100 µM	23.3 µM	42.5 µM	5.26 µM	–	–

Reference: PubChem BioAssay (NCI)
